The assay has as its target T1, VLA-4 (α4β1 integrin) (Homo sapiens, UniProt P05556+P13612).
T1 construct: followed by 10 µl of Ramos cell-derived VLA-4; endogenous in cells; host or cells: Ramos cells (VLA-4 preparation derived from the cells)
The assay can be described thus: VLA-4 / VCAM-1 Screening Assay (solid-phase, dual antibody ELISA). Conditions: inhibition of binding of Ramos cell-derived VLA-4 to immobilized recombinant human VCAM-1. Here is the method: VLA-4 / VCAM-1 Screening Assay
VLA-4 antagonist activity, defined as ability to compete for binding to immobilized VCAM-1, was quantitated using a solid-phase, dual antibody ELISA. VLA-4 (α4β1 integrin) bound to VCAM-1 was detected by a complex of anti-integrin β1 antibody: HRP-conjugated anti-mouse IgG: chromogenic substrate (K-Blue). Initially, this entailed coating 96 well plates (Nunc Maxisorp) with recombinant human VCAM-1 (0.4 µg in 100 µl PBS), sealing each plate and then allowing the plates to stand at 4°C for ^~18 hr.
A general note: ELISA stands for enzyme-linked immunosorbent assay.

This passage reports IC50 results from patent publication EP1005446B1, “N-AROYLPHENYLALANINE DERIVATIVES” (priority 1997, dated 1999).

T1 sequence (P13612 34-1032): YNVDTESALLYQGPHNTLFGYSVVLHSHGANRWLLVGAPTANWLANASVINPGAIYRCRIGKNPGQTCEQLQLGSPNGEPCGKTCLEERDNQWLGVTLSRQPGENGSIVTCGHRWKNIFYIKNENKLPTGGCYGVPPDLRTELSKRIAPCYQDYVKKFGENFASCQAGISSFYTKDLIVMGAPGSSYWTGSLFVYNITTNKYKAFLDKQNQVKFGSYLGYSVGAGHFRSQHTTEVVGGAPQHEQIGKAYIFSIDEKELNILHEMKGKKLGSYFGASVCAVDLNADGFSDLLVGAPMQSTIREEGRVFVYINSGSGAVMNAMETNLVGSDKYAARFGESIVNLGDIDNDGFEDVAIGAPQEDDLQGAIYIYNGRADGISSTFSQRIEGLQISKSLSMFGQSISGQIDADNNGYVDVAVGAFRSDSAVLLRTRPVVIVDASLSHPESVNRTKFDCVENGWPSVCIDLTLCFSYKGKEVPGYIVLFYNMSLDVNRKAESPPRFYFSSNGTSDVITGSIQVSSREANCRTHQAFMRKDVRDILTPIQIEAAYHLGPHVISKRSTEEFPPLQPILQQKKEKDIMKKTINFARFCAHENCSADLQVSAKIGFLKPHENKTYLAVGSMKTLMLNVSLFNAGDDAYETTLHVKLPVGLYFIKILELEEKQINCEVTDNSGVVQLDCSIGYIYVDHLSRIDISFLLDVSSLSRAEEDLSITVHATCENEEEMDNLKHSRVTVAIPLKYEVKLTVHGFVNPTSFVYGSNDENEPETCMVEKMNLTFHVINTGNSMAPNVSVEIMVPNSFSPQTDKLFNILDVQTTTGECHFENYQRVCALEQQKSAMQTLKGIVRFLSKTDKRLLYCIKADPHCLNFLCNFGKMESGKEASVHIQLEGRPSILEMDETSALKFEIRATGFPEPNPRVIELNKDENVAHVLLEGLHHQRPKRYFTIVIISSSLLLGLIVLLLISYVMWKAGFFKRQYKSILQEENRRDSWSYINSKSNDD
T1 sequence (P05556 21-798): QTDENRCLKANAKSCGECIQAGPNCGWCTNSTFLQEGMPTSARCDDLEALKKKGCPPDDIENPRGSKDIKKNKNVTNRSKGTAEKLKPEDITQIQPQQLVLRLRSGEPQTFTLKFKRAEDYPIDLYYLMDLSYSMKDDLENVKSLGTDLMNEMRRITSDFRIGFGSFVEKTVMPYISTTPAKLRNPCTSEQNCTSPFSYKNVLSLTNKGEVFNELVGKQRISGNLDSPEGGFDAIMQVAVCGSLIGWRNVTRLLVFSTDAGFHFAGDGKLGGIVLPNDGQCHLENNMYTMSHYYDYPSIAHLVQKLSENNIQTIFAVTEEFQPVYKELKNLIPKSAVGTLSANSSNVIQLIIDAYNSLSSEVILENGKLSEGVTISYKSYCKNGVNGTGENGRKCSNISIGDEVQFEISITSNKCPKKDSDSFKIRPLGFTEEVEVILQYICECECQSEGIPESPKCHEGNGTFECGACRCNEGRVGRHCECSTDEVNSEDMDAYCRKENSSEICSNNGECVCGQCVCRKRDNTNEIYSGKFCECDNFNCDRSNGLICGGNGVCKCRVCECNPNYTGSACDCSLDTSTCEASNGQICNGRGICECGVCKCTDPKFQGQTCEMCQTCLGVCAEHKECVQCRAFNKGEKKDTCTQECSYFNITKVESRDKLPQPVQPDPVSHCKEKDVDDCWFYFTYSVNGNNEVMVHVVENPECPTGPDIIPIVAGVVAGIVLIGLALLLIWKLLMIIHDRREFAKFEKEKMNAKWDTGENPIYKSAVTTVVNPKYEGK

By IC50 is commonly meant the concentration that inhibits the measured activity by half. For the molecule `COCCC1(C(=O)N[C@@H](Cc2ccc(NC(=O)c3c(Cl)cccc3Cl)cc2)C(=O)O)CCCC1` [Example 59, 4-[[(2,6-dichlorophenyl)carbonyl]amino]-N-[[1-(2-methoxyethyl)cyclopentyl]carbonyl]-L-phenylalanine], the half-maximal inhibitory concentration (IC50) was determined as 0.26 nM.
